Test results from publication PMC12064818, “A general assay platform to study protein pharmacology using ligand-dependent structural dynamics” (Nature Communications, 2025).
Counter-ions that a name gives are not always drawn. Like-named read-outs stand apart in the source and are kept apart here.

What was measured:
PKA = conditions: cited from earlier work
PKA-N-HiBiT = PKA-N-HiBiT (Homo sapiens, UniProt P17612); experiment: SDR assay, PKA-N-HiBiT
[1] = molecular target: T1, ABL1-N-HiBiT kinase domain (Homo sapiens, UniProt P00519); experiment: SDR assay, ABL1-N-HiBiT; conditions: for ABL1 SDR pSDR50: heatmap data, 128 kinase inhibitors; for EC50: read-out: SDR Ave SDR50
T1 sequence (P00519 233-500): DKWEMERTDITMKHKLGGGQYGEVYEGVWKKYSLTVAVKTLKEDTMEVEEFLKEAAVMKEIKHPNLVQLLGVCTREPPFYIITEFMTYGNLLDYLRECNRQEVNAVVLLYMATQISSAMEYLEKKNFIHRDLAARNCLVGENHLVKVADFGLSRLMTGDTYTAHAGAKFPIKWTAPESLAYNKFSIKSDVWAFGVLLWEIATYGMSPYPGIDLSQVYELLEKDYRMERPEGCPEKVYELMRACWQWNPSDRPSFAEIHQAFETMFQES

[2] = annotation yes/no for kinase library compound, source not given
[3] = PKA-N-HiBiT qHTS, SDR assay, average maximal response
[4] = ABL1-N-HiBiT qHTS, average maximal SDR response
[5] = ABL1-N-HiBiT qHTS, SDR assay, average maximal response
[6] = ABL1-N-HiBiT qHTS, SDR assay, average
[7] = ABL1-N-HiBiT qHTS, average, unit inferred
[8] = read-out: PKA SDR Ave SDR50, PKA-N-HiBiT qHTS, SDR assay, average

| Compound | Annotated PKA activity (PKA; [2]) | SDR Ave Max Response (PKA-N-HiBiT; [3]) | SDR Ave Max Response [1, 4] | also measured |
| --- | --- | --- | --- | --- |
| CN1CCN([C@H]2CC[C@H](n3cc(-c4ccc(Oc5ccccc5)cc4)c4c(N)ncnc43)CC2)CC1 [A-419259] | no | -12.03 | 100.16 | – |
| COc1ccc2c(Oc3ccc(NC(=O)c4c(C)n(CC(C)(C)O)n(-c5ccccc5)c4=O)nc3)ccnc2c1 [AMG-458] | yes | – | 38.29 | EC50 (PKA-N-HiBiT): 10.7 µM; SDR Ave Max Response (PKA-N-HiBiT): -17.61; EC50 (PKA-N-HiBiT; read-out: PKA SDR Ave SDR50): 10.7 µM |
| COc1ccc(CNC(=O)Nc2ncc([N+](=O)[O-])s2)cc1 [AR-A014418] | no | -0.25 | -7.75 | – |
| Cc1sc2c(c1C)C(c1ccc(Cl)cc1)=N[C@@H](CC(=O)Nc1ccc(OCCOCCOCCOCCNc3cccc4c3C(=O)N(C3CCC(=O)NC3=O)C4=O)cc1)c1nnc(C)n1-2 (stereo partly drawn) [ARV-825] | no | 3.65 | – | SDR Ave Max Response [1, 5]: 5.73 |
| O=C(NC1CCNCC1)c1n[nH]cc1NC(=O)c1c(Cl)cccc1Cl [AT-7519] | no | -18.47 | 9.60 | – |
| NC1(C(=O)N[C@@H](CCO)c2ccc(Cl)cc2)CCN(c2nc[nH]c3nccc2-3)CC1 [AZD-5363] | yes | 63.28 | -4.45 | – |
| CCn1nc(C2CCN(C(=O)CCO)CC2)nc1-c1cnc(N)c(-c2nnc(C(C)(C)C)o2)n1 [AZD-8835] | no | 6.01 | – | ABL1 SDR pSDR50 [1]: 4.80; SDR Ave Max Response [1, 5]: 63.43; EC50 [1, 6]: 17.6 µM |
| S=C(NCc1ccc2c(c1)OCO2)N1CCN(c2ncnc3c2oc2ccccc23)CC1 [Amuvatinib] | no | -0.36 | 8.96 | – |
| Cc1cccc(/C=N/Nc2cc(N3CCOCC3)nc(OCCc3ccccn3)n2)c1 [Apilimod] | no | -3.80 | 7.50 | – |
| CNC(=O)c1ccccc1Sc1ccc2c(/C=C/c3ccccn3)n[nH]c2c1 [Axitinib] | no | -3.36 | – | – |
| CC(C)CCN1c2nc(Nc3cc(F)c(O)c(F)c3)ncc2N(C)C(=O)C1C (stereo not drawn) [BI-D1870] | no | -9.75 | – | ABL1 SDR pSDR50 [1]: 5.36; SDR Ave Max Response [1, 5]: -47.47; EC50 [1, 6]: 4.72 µM |
| C[C@@H]1CCNC(=O)c2cc3ccc(C(=O)Nc4nc5ccccc5n4CCCN(C)C)cc3n21 [BIX-02565] | no | 10.58 | 21.22 | – |
| Cc1ccccc1-n1c([C@H](C)Nc2nc(N)nc3[nH]cnc23)nc2cccc(C)c2c1=O [CAL-130 Hydrochloride] | no | 2.85 | -18.17 | SDR Ave pSDR50 ([1]; ABL1-N-HiBiT qHTS, average): 5.40; EC50 [1, 7]: 4.04 µM |
| CCN1C(=O)CNc2ncc(-c3ccc(-c4nc[nH]n4)nc3C)nc21 [CC-115] | no | -2.34 | – | SDR Ave Max Response [1, 5]: 31.14 |
| Cc1nc2ccc(-n3ncc(C(=O)c4cc5ccccc5[nH]4)c3N)cc2[nH]1 [CH-5183284] | no | 4.01 | 37.79 | ABL1 SDR pSDR50 [1]: 5.61; EC50 [1, 7]: 2.51 µM |
| Nc1nc(NCCNc2ncc(-n3ccnc3)c(-c3ccc(Cl)cc3Cl)n2)ccc1[N+](=O)[O-] [CT-98014] | – | – | -28.48 | Annotated PKA activity (PKA): no; EC50 (PKA-N-HiBiT): 11.7 µM; SDR Ave Max Response (PKA-N-HiBiT): -28.99; EC50 (PKA-N-HiBiT; read-out: PKA SDR Ave SDR50): 12.9 µM; ABL1 SDR pSDR50 [1]: 4.54; EC50 [1, 7]: 33.8 µM |
| CO[C@@H](C(=O)N1Cc2n[nH]c(NC(=O)c3ccc(N4CCN(C)CC4)cc3)c2C1)c1ccccc1 [Danusertib] | no | 4.52 | – | – |
| Cc1cc(F)ccc1-c1nc(NC(CO)CO)nc2c1ccc(=O)n2-c1c(F)cccc1F [Dilmapimod] | no | 3.69 | – | SDR Ave Max Response [1, 5]: -3.68 |
| Cc1ncc(NC(=O)c2ccc(CN3CCN(C)CC3)c(C(F)(F)F)c2)cc1Nc1nccc(-c2cccnc2)n1 [Flumatinib] | no | 7.84 | 74.04 | – |
| CC1(C)OCCn2c1nc1c(N3CCOCC3)nc(-c3cnc(N)nc3)nc12 [GDC-0084] | no | 3.97 | – | ABL1 SDR pSDR50 [1]: 5.16; SDR Ave Max Response [1, 5]: 58.32; EC50 [1, 6]: 7.07 µM |
| Cn1ncc(NC(=O)c2nc(-c3c(F)cccc3F)sc2N)c1N1CC[C@@H](N)[C@H](F)CC1 [GDC-0339] | no | 10.49 | – | SDR Ave Max Response [1, 5]: 12.78 |
| COc1ccc(-n2c(C)c([N+](=O)[O-])c3ccc(O)cc32)cc1 [ID-8] | no | 2.68 | 10.66 | – |

| Compound | Annotated PKA activity (PKA; [2]) | SDR Ave Max Response (PKA-N-HiBiT; [3]) | SDR Ave Max Response [1, 4] | also measured |
| --- | --- | --- | --- | --- |
| Cc1[nH]c2ccccc2c1C1=C(NCCc2ccc(F)cc2)C(=O)N(C)C1=O [IM-12] | no | -30.07 | -12.41 | EC50 (PKA-N-HiBiT): 32.4 µM; EC50 (PKA-N-HiBiT; [8]): 41.4 µM |
| C[C@@H]1CN(CC(=O)Nc2ccc3c(c2)Cc2cccc(-c4cc(=O)cc(N5CCOCC5)o4)c2S3)C[C@H](C)O1 [KU-60019] | no | -4.54 | -23.55 | – |
| CN1CCN(CCCNc2ncc(Cl)c(-c3cc4c(C(=O)NC5CC5)cccc4s3)n2)CC1 [LY-2409881] | no | -2.90 | -19.98 | ABL1 SDR pSDR50 [1]: 5.21; EC50 [1, 7]: 7.98 µM |
| C/N=c1\ncc2cc(-c3cc(NC(=O)NCCC(C)(C)C)c(F)cc3C)c(C)nc2[nH]1 [LY-3009120] | no | 2.67 | – | – |
| O=C(c1cccc(Cl)c1F)N1CCN(Cc2cccc(Nc3nccs3)n2)CC1 [MK-8745] | no | -13.81 | 59.57 | ABL1 SDR pSDR50 [1]: 5.27; EC50 [1, 7]: 5.74 µM |
| O=C(NCCCNc1nc(Nc2ccc(N3CCOCC3)cc2)ncc1C1CC1)C1CCC1 [MRT-68601 HCl] | no | 1.65 | – | SDR Ave Max Response [1, 5]: -7.81 |
| Cc1n[nH]c2ncc(C(=O)N3CCC[C@H]3c3ccc(Cl)cc3)cc12 [MSC2530818] | no | 40.05 | – | EC50 (PKA-N-HiBiT): 14.1 µM; EC50 (PKA-N-HiBiT; [8]): 14.5 µM; SDR Ave Max Response [1, 5]: 4.30 |
| Cc1ccc(C(=O)Nc2ccc(Oc3cc4cnn(C)c4cc3-c3cn[nH]c3)c(F)c2)c(=O)n1-c1ccc(F)cc1 [Merestinib] | no | 8.78 | 22.76 | – |
| FC(F)(F)c1ccc(/C=C/c2nc(COc3ccc(CCCCn4ccnn4)cc3)co2)cc1 [Mubritinib] | – | – | – | Annotated PKA activity (PKA): no; SDR Ave Max Response (PKA-N-HiBiT): 6.74; SDR Ave Max Response [1]: 1.25 |
| Cc1cc(NC(=O)c2ccc(C)c(Nc3nccc(-c4cccnc4)n3)c2)cc(-n2cnc(C)c2)c1 [NSC762948] | no | -6.66 | – | – |
| Cc1cn(-c2cccc(NC(=O)c3ccc(C)c(Nc4nccc(-c5cccnc5)n4)c3)c2)cn1 [NSC762949] | no | -2.45 | – | – |
| Cc1cn(-c2cc(F)cc(NC(=O)c3ccc(C)c(Nc4nccc(-c5cccnc5)n4)c3)c2)cn1 [NSC762950] | no | -15.93 | – | – |
| CNC(=O)c1ccccc1Nc1nc(Nc2ccc(N3CCOCC3)cc2OC)ncc1Cl [NVP-TAE226] | no | 11.43 | 60.77 | – |
| COc1ccc(-n2c(SCC#N)nc3sc4c(c3c2=O)CCCC4)cc1 [Necrostatin-5] | no | 1.51 | – | SDR Ave Max Response [1]: -3.84 |
| Cc1cc(Nc2ncc3cc(-c4c(Cl)cccc4Cl)c(=O)n(C)c3n2)ccc1F [PD 180970] | no | -17.64 | – | – |
| COc1cc2c(cc1OC)-c1[nH]nc(Nc3cccc(F)c3)c1C2 [PDGF RTK inhibitor IV] | no | 5.85 | – | – |
| CN1CCN(CCOc2cc(OC3CCOCC3)c3c(Nc4c(Cl)ccc5c4OCO5)ncnc3c2)CC1 [Saracatinib] | no | 3.81 | – | – |
| Cc1cc(-c2cc(O)ccc2Cl)cc2nnc(Nc3ccc(OCCN4CCCC4)cc3)nc12 [TG 100572 HCl] | no | -13.83 | – | – |
| CN[C@@H]1C[C@H]2O[C@@](C)([C@@H]1OC)n1c3ccccc3c3c4c(c5c6ccccc6n2c5c31)C(=O)NC4 [staurosporine, reference compound] | yes | – | – | – |
| PHA-665752 | no | – | – | – |
| TAE-684 | no | 28.42 | – | EC50 (PKA-N-HiBiT; [8]): 9.6 µM |
| Tozasertib | no | – | – | SDR Ave Max Response (PKA-N-HiBiT): -1.35 |
